Reference: ChEMBL document CHEMBL2440114, “Methanolysis of triterpenoid saponin from Ardisia gigantifolia stapf. and structure-activity relationship study against cancer cells” (Bioorg Med Chem Lett, 2013)

Legend:
HCT-8 = test: Antiproliferative activity against human HCT8 cells by MTT assay; assay type: functional, cell-based
Bel-7402 [1] = test: Antiproliferative activity against human Bel7402 cells by MTT assay; assay type: functional, cell-based
A549 = test: Antiproliferative activity against human A549 cells by MTT assay; assay type: functional, cell-based
Bel-7402 [2] = test: Cell cycle arrest in human Bel7402 cells assessed as accumulation in G1 phase (reference value: 37.6+/- 1.4 %); assay type: functional
Bel-7402 [3] = test: Cell cycle arrest in human Bel7402 cells assessed as accumulation in G2/M phase (reference value: 43.75+/- 1.1 %); assay type: functional
Bel-7402 [4] = test: Antiproliferative activity against human Bel7402 cells at 0.5 to 20 uM by MTT assay; assay type: functional, cell-based; conditions: TDE = time-dependent effect
Bel-7402 [5] = test: Antiproliferative activity against human Bel7402 cells after 12 to 72 hrs by MTT assay; assay type: functional, cell-based
Bel-7402 [6] = test: Cell cycle arrest in human Bel7402 cells assessed as accumulation in S phase (reference value: 18.65+/- 0.5 %); assay type: functional
HeLa = test: Cytotoxicity against human HeLa cells; assay type: functional, cell-based
HepG2 = test: Cytotoxicity against human HepG2 cells; assay type: functional, cell-based
[7] = Cytotoxicity against human […] cells; assay type: functional, cell-based
EJ = test: Cytotoxicity against human EJ cells; assay type: functional, cell-based

SMILES	IC50 (HCT-8) [µM]	IC50 (Bel-7402 [1]) [µM]	IC50 (A549) [µM]	other results
C[C@@H]1O[C@@H](O[C@H]2[C@H](O)[C@@H](CO)O[C@@H](O[C@H]3CO[C@@H](O[C@H]4CC[C@]5(C)[C@H]6CC[C@]78OC[C@@]9(CC[C@](C)(C=O)C[C@H]97)[C@H](O)C[C@@]8(C)[C@]6(C)CC[C@H]5C4(C)C)[C@H](O[C@@H]4O[C@H](CO)[C@@H](O)[C@H](O)[C@H]4O)[C@H]3O)[C@@H]2O[C@@H]2OC[C@@H](O)[C@H](O[C@@H]3O[C@H](CO)[C@@H](O)[C@H](O)[C@H]3O)[C@H]2O)[C@H](O)[C@H](O)[C@H]1O	2	3.2	3.2	
CC(=O)OC[C@@]1(C)CC[C@]23CO[C@@]4(CC[C@@H]5[C@@]6(C)CC[C@H](O[C@@H]7OC[C@H](O[C@@H]8O[C@H](CO)[C@@H](O)[C@H](O[C@@H]9O[C@@H](C)[C@H](O)[C@@H](O)[C@H]9O)[C@H]8O[C@@H]8OC[C@@H](O)[C@H](O)[C@H]8O)[C@H](O)[C@H]7O[C@@H]7O[C@H](CO)[C@@H](O)[C@H](O)[C@H]7O)C(C)(C)[C@@H]6CC[C@@]5(C)[C@]4(C)C[C@H]2O)[C@@H]3C1	> 100	> 100	59.7	
C[C@@H]1O[C@@H](O[C@H]2[C@H](O)[C@@H](CO)O[C@@H](O[C@H]3CO[C@@H](O[C@H]4CC[C@]5(C)[C@H]6CC[C@]78OC[C@@]9(CCC(C)(C)C[C@H]97)[C@H](O)C[C@@]8(C)[C@]6(C)CC[C@H]5C4(C)C)[C@H](O[C@@H]4O[C@H](CO)[C@@H](O)[C@H](O)[C@H]4O)[C@H]3O)[C@@H]2O[C@@H]2OC[C@@H](O)[C@H](O)[C@H]2O)[C@H](O)[C@H](O)[C@H]1O	> 100	0.86	51.8	Activity (Bel-7402 [2]): 33.31%; Activity (Bel-7402 [3]): 48.08%; Activity (Bel-7402 [4]): tde; Activity (Bel-7402 [5]): Dose-dependent effect; Activity (Bel-7402 [6]): 18.61%
CCCCO[C@H]1OC[C@]23CC[C@@]1(C)C[C@H]2C1=CC[C@@H]2[C@@]4(C)CC[C@H](O[C@@H]5OC[C@H](O[C@@H]6O[C@H](CO)[C@@H](O)[C@H](O)[C@H]6O)[C@H](O)[C@H]5O[C@@H]5O[C@H](CO)[C@@H](O)[C@H](O)[C@H]5O)C(C)(C)[C@@H]4CC[C@@]2(C)[C@]1(C)C[C@H]3O	> 100	> 100	> 100	
C[C@@H]1O[C@@H](O[C@H]2[C@H](O)[C@@H](CO)O[C@@H](O[C@H]3CO[C@@H](O[C@H]4CC[C@]5(C)[C@H]6CC[C@]78OC[C@@]9(CC[C@](C)(C=O)C[C@H]97)[C@H](O)C[C@@]8(C)[C@]6(C)CC[C@H]5C4(C)C)[C@H](O[C@@H]4O[C@H](CO)[C@@H](O)[C@H](O)[C@H]4O)[C@H]3O)[C@@H]2O[C@@H]2OC[C@@H](O)[C@H](O)[C@H]2O)[C@H](O)[C@H](O)[C@H]1O	> 100	1.58	> 100	IC50 (HeLa): 1.8 µM; IC50 (HepG2): 1.9 µM; IC50 [7]: 2.1 µM; IC50 (EJ): 2 µM
C[C@@H]1O[C@@H](O[C@H]2[C@H](O)[C@@H](CO)O[C@@H](O[C@H]3CO[C@@H](O[C@H]4CC[C@]5(C)[C@H]6CC[C@]78OC[C@@]9(CC[C@](C)(CO)C[C@H]97)C(=O)C[C@@]8(C)[C@]6(C)CC[C@H]5C4(C)C)[C@H](O[C@@H]4O[C@H](CO)[C@@H](O)[C@H](O)[C@H]4O)[C@H]3O)[C@@H]2O[C@@H]2OC[C@@H](O)[C@H](O)[C@H]2O)[C@H](O)[C@H](O)[C@H]1O	3.41	3.6	3.77	
CCCCO[C@@H]1OC[C@]23CC[C@@]1(C)C[C@H]2C1=CC[C@@H]2[C@@]4(C)CC[C@H](O[C@@H]5OC[C@H](O[C@@H]6O[C@H](CO)[C@@H](O)[C@H](O)[C@H]6O)[C@H](O)[C@H]5O[C@@H]5O[C@H](CO)[C@@H](O)[C@H](O)[C@H]5O)C(C)(C)[C@@H]4CC[C@@]2(C)[C@]1(C)C[C@H]3O	> 100	7.34	10.6	
CC1(C)CC[C@]23CO[C@@]4(CC[C@@H]5[C@@]6(C)CC[C@H](O[C@@H]7OC[C@H](O[C@@H]8O[C@H](CO)[C@@H](O)[C@H](O)[C@H]8O[C@@H]8OC[C@@H](O)[C@H](O)[C@H]8O)[C@H](O)[C@H]7O[C@@H]7O[C@H](CO)[C@@H](O)[C@H](O)[C@H]7O)C(C)(C)[C@@H]6CC[C@@]5(C)[C@]4(C)C[C@H]2O)[C@@H]3C1 [LYSIKOKIANOSIDE 1]	10.1	6.77	4.37	
CC(=O)OC[C@H]1O[C@@H](O[C@H]2[C@H](O[C@H]3CC[C@]4(C)[C@H]5CC[C@]67OC[C@@]8(CC[C@](C)(C=O)C[C@H]86)[C@H](O)C[C@@]7(C)[C@]5(C)CC[C@H]4C3(C)C)OC[C@H](O[C@@H]3O[C@H](CO)[C@@H](O)[C@H](O[C@@H]4O[C@@H](C)[C@H](O)[C@@H](O)[C@H]4O)[C@H]3O[C@@H]3OC[C@@H](O)[C@H](O)[C@H]3O)[C@@H]2O)[C@H](O)[C@@H](O)[C@@H]1O	4.1	7.76	7.52	
CC1(C)[C@@H](O[C@@H]2OC[C@H](O[C@@H]3O[C@H](CO)[C@@H](O)[C@H](O)[C@H]3O[C@@H]3OC[C@@H](O)[C@H](O)[C@H]3O)[C@H](O)[C@H]2O)CC[C@]2(C)[C@H]3CC[C@]45OC[C@@]6(CC[C@](C)(C=O)C[C@H]64)[C@H](O)C[C@@]5(C)[C@]3(C)CC[C@@H]12 [PRIMULANIN]	8.43	10.3	12	
C[C@@H]1O[C@@H](O[C@H]2[C@H](O)[C@@H](CO)O[C@@H](O[C@H]3CO[C@@H](O[C@H]4CC[C@]5(C)[C@H]6CC[C@]78OC[C@@]9(CC[C@](C)(C=O)C[C@H]97)C(=O)C[C@@]8(C)[C@]6(C)CC[C@H]5C4(C)C)[C@H](O)[C@H]3O)[C@@H]2O[C@@H]2OC[C@@H](O)[C@H](O)[C@H]2O)[C@H](O)[C@H](O)[C@H]1O	7.73	6.9	10	
C[C@@H]1O[C@@H](O[C@H]2[C@H](O)[C@@H](CO)O[C@@H](O[C@H]3CO[C@@H](O[C@H]4CC[C@]5(C)[C@H]6CC[C@]78OC[C@@]9(CCC(C)(C)C[C@H]97)[C@H](O)C[C@@]8(C)[C@]6(C)CC[C@H]5C4(C)C)[C@H](O[C@@H]4O[C@H](CO)[C@@H](O)[C@H](O)[C@H]4O)[C@H]3O)[C@@H]2O[C@@H]2OC[C@@H](O)[C@H](O[C@@H]3O[C@H](CO)[C@@H](O)[C@H](O)[C@H]3O)[C@H]2O)[C@H](O)[C@H](O)[C@H]1O	10.1	7.83	8.15	Activity (Bel-7402 [2]): 40.86%; Activity (Bel-7402 [3]): 59.94%; Activity (Bel-7402 [4]): tde; Activity (Bel-7402 [5]): Dose-dependent effect
O=c1[nH]cc(F)c(=O)[nH]1 [FLUOROURACIL]	6.92	8.3		
C[C@@H]1O[C@@H](O[C@H]2[C@H](O)[C@@H](CO)O[C@@H](O[C@H]3CO[C@@H](O[C@H]4CC[C@]5(C)[C@H]6CC[C@]78OC[C@@]9(CC[C@](C)(CO)C[C@H]97)[C@H](O)C[C@@]8(C)[C@]6(C)CC[C@H]5C4(C)C)[C@H](O[C@@H]4O[C@H](CO)[C@@H](O)[C@H](O)[C@H]4O)[C@H]3O)[C@@H]2O[C@@H]2OC[C@@H](O)[C@H](O)[C@H]2O)[C@H](O)[C@H](O)[C@H]1O	8.63	> 100	31	
CC(=O)OC[C@H]1O[C@@H](O[C@H]2[C@H](O[C@H]3CC[C@]4(C)[C@H]5CC[C@]67OC[C@@]8(CCC(C)(C)C[C@H]86)[C@H](O)C[C@@]7(C)[C@]5(C)CC[C@H]4C3(C)C)OC[C@H](O[C@@H]3O[C@H](CO)[C@@H](O)[C@H](O[C@@H]4O[C@@H](C)[C@H](O)[C@@H](O)[C@H]4O)[C@H]3O[C@@H]3OC[C@@H](O)[C@H](O)[C@H]3O)[C@@H]2O)[C@H](O)[C@@H](O)[C@@H]1O	9.28	8.4	8.06	
CC(=O)OC[C@@]1(C)CC[C@]23CO[C@@]4(CC[C@@H]5[C@@]6(C)CC[C@H](O[C@@H]7OC[C@H](O[C@@H]8O[C@H](CO)[C@@H](O)[C@H](O[C@@H]9O[C@@H](C)[C@H](O)[C@@H](O)[C@H]9O)[C@H]8O[C@@H]8OC[C@@H](O)[C@H](O[C@@H]9O[C@H](CO)[C@@H](O)[C@H](O)[C@H]9O)[C@H]8O)[C@H](O)[C@H]7O[C@@H]7O[C@H](CO)[C@@H](O)[C@H](O)[C@H]7O)C(C)(C)[C@@H]6CC[C@@]5(C)[C@]4(C)C[C@H]2O)[C@@H]3C1	5.73	2.71	6.33	
CCCCO[C@H]1OC[C@]23CC[C@@]1(C)C[C@H]2C1=CC[C@@H]2[C@@]4(C)CC[C@H](O)C(C)(C)[C@@H]4CC[C@@]2(C)[C@]1(C)C[C@H]3O	> 100	53.1	44.3	
CCCCO[C@@H]1OC[C@]23CC[C@@]1(C)C[C@H]2C1=CC[C@@H]2[C@@]4(C)CC[C@H](O)C(C)(C)[C@@H]4CC[C@@]2(C)[C@]1(C)C[C@H]3O	> 100	11.6	> 100	
